Assay results reported in paper PMC9232612, “A phase 1b randomised controlled trial of a glucagon-like peptide-1 and glucagon receptor dual agonist IBI362 (LY3305677) in Chinese patients with type 2 diabetes” (Nature Communications, 2022).
Several values for one entry are separate records, joined by “and”; a condition that tells them apart may be missing. Equal values may be shown once.

What was measured:
Assay type in all cases: in vivo, human
[1] = system: Chinese patients with T2D; assay: Mixed-meal tolerance test (MTT): insulin
Procedure: HbA1c (2200101, Bio-Rad, USA), blood glucose (05168791190, Roche Diagnostics, Germany), insulin (12017547122, Roche Diagnostics, Germany), C peptide (03184897190, Roche Diagnostics, Germany), total GLP-1 (GLP-1 [7–36] amide and its metabolite, GLP-1 [9–36] amide, 10-1278-01, Mercodia AB, Sweden) and OXM (AL-139, AnshLabs, USA) tests were performed according to the manufactures’ instruction manuals in a central laboratory (KingMed Diagnostics, Guangzhou, China). HbA1c was measured using a Bio-rad D-100 Haemoglobin Testing System (Bio-rad). Blood glucose was measured using a Roche Cobas c702 analyser (Roche Diagnostics). Insulin and C peptide were measured using a Roche […] analyser (Roche Diagnostics). GLP-1 and OXM were measured using a Tecan Infinite M Plex microplate reader (TECAN).
Standard non-compartmental pharmacokinetics methods were used to analyze IBI362 plasma concentration data using Pkanalix 2020R1 (Lixoft, Antony, France). Secondary efficacy outcomes included change from baseline to week 12 in HbA1c, fasting plasma glucose (FPG), fasting insulin levels, change from baseline to week 12 in post-mixed-meal tolerance test (post-MTT) glucose, insulin, C peptide, GLP-1 and OXM levels, as well as seven-point self-measured blood glucose (SMBG) profile. […]
3. Standard meal test (MTT) collection measures included: insulin, C-peptide, plasma glucose, glucagon, endogenous OXM, and endogenous GLP-1. The sampling points include: fasting, 30 min, 1h, 2h, 3h and 4h.
A total of 9 mL blood will be collected from each blood collection point. See the manual of the central laboratory for the detailed operation process. Fasting state refers to fasting for 10 hours. [ The standard meal is
instant noodles. The master Kang roast beef noodles (bucket noodles) purchased by the sponsor in a unified manner are removed from the oil bag. The noodles are soaked in boiled water and then removed. The seasoning
bag is added and mixed well. The time is counted from the first bite of eating. The noodles are eaten within 10 minutes, and 200 mL of water is drunk; or the instant noodles are directly opened with 200 mL of boiled
water to ensure that the noodles are eaten and the water or soup is drunk]. Visit days when MTT test is performed: 1 day prior to Cycle 1 administration, Day 80 (D80). […]
● Test by central laboratory

[2] = Body weight; conditions: for Percent change from baseline to week 12 in body weight, single patients: each line a single patient; for Percent change from baseline in body weight, LS mean / Percent change from baseline in body weight, LS mean (SE): n=8; for Percent change from baseline in body weight, LS mean / Percent change from baseline in body weight, LS mean (SE) / Body weight (percent CFB): ETD versus placebo, LS mean (90% CI): MMRM; for Percent change from baseline in body weight, LS mean (SE) / Body weight (percent CFB): ETD versus placebo, LS mean (90% CI): week 12
Procedure: (§1) Exploratory outcomes included change from baseline in body weight, waist circumference, body-mass index (BMI) and change in homeostatic model assessment of β-cell function (HOMA-β) and insulin resistance (HOMA-IR).
The analyses for change from baseline in HbA1c, FPG, post-MTT glucose AUC0–4 h and body weight were performed using the mixed-effect model for repeated measures (MMRM) with least-squares means and standard error provided. The MMRM included the corresponding baseline value, treatment, visit and treatment-by-visit as fixed effects and patient as a random effect. Mean change or mean percent change from baseline were analysed using a restricted maximum likelihood (REML)‐based repeated measures approach in combination with the Newton Raphson Algorithm. The fix effect of visit was fitted as a repeated effect and an unstructured covariance matrix was used. In case of non-converge, matrix like Variance Components and Compound Symmetry will be tested in a subsequent order until model‐convergence is achieved. The Kenward-Roger degree of freedom was used in estimating fixed effects. No missing data imputation was conducted. For HbA1c, FPG and body weight, point estimate of treatment difference versus placebo and 90% CI were provided for each IBI362 dose group and the dulaglutide group, with nominal p values.

[3] = Waist circumference; conditions: for Change from baseline to week 12 in waist circumference, individual: single patients
From the text: as §1

[4] = Body-mass index (BMI); conditions: mean
From the text: as §1

[5] = system: Chinese patients with T2D; assay: Lipids (total cholesterol, LDL cholesterol, triglycerides); conditions: mean
Procedure: Fig. S8: Change from baseline in lipids levels at week 12.
Data are plotted as means +/- SD. IBI362 3.0 mg n = 7; IBI362 4.5 mg n = 5; IBI362 6.0 mg n = 8; Pooled placebo n = 10; Dulaglutide n = 6. CFB = change from baseline; LDL = low density lipoprotein; SD = standard deviation. Source data are provided as a Source Data file.
Total cholesterol LDL cholesterol Triglycerides
CFB in lipids at week 12 (mmol/L),
(1 picture or pasted object on this page, not shown here) […]
Table 4 Routine laboratory safety assessments […]
Lipids Total cholesterol (TC), triglyceride (TG), high-density lipoprotein cholesterol (HDL-C), and low-density lipoprotein cholesterol (LDL-C). […]

[6] = system: Chinese patients with T2D; assay: Homeostatic model assessment of insulin resistance (HOMA-IR); conditions: for Change from baseline to week 12 in HOMA-IR, individual: single patients
From the text: as §1

Compound: CC(C)C[C@H](NC(=O)[C@H](CC(C)C)NC(=O)[C@H](Cc1c[nH]c2ccccc12)NC(=O)[C@H](CCC(=O)O)NC(=O)[C@@H](NC(=O)[C@H](Cc1ccccc1)NC(=O)[C@H](CCC(=O)O)NC(=O)[C@H](CCCCNC(=O)COCCOCCNC(=O)COCCOCCNC(=O)CC[C@H](NC(=O)CCCCCCCCCCCCCCCCCCC(=O)O)C(=O)O)NC(=O)[C@H](C)NC(=O)[C@H](CCCCN)NC(=O)[C@H](CCCCN)NC(=O)[C@H](CCC(=O)O)NC(=O)[C@H](CC(=O)O)NC(=O)[C@H](CC(C)C)NC(=O)[C@H](Cc1ccc(O)cc1)NC(=O)[C@H](CCCCN)NC(=O)[C@H](CO)NC(=O)[C@H](Cc1ccc(O)cc1)NC(=O)[C@H](CC(=O)O)NC(=O)[C@H](CO)NC(=O)[C@@H](NC(=O)[C@H](Cc1ccccc1)NC(=O)[C@@H](NC(=O)CNC(=O)[C@H](CCC(N)=O)NC(=O)C(C)(C)NC(=O)[C@@H](N)Cc1c[nH]cn1)[C@@H](C)O)[C@@H](C)O)C(C)C)C(=O)N[C@@H](CCC(=O)O)C(=O)NCC(=O)NCC(=O)N1CCC[C@H]1C(=O)N[C@@H](CO)C(=O)N[C@@H](CO)C(=O)NCC(N)=O [IBI362]
- Insulin during MTT, mean ([1]; week 12, 0 min, 3.0 mg cohort, n=7): 9.22 μU/mL
- Insulin during MTT, mean ([1]; week 12, 0 min, 4.5 mg cohort, n=5): 13.41 μU/mL
- Insulin during MTT, mean ([1]; week 12, 0 min, 6.0 mg cohort, n=8): 13.25 μU/mL
- Insulin during MTT, mean ([1]; week 12, 30 min, 3.0 mg cohort, n=7): 17.47 μU/mL
- Insulin during MTT, mean ([1]; week 12, 30 min, 4.5 mg cohort, n=5): 22.16 μU/mL
- Insulin during MTT, mean ([1]; week 12, 30 min, 6.0 mg cohort, n=8): 22.08 μU/mL
- Insulin during MTT, mean ([1]; week 12, 60 min, 3.0 mg cohort, n=7): 34.23 μU/mL
- Insulin during MTT, mean ([1]; week 12, 60 min, 4.5 mg cohort, n=5): 41.02 μU/mL
- Insulin during MTT, mean ([1]; week 12, 60 min, 6.0 mg cohort, n=8): 41.49 μU/mL
- Insulin during MTT, mean ([1]; week 12, 120 min, 3.0 mg cohort, n=7): 57.20 μU/mL
- Insulin during MTT, mean ([1]; week 12, 120 min, 4.5 mg cohort, n=5): 45.65 μU/mL
- Insulin during MTT, mean ([1]; week 12, 120 min, 6.0 mg cohort, n=8): 64.69 μU/mL
- Insulin during MTT, mean ([1]; week 12, 180 min, 3.0 mg cohort, n=7): 39.93 μU/mL
- Insulin during MTT, mean ([1]; week 12, 180 min, 4.5 mg cohort, n=5): 50.30 μU/mL
- Insulin during MTT, mean ([1]; week 12, 180 min, 6.0 mg cohort, n=8): 46.96 μU/mL
- Insulin during MTT, mean ([1]; week 12, 240 min, 3.0 mg cohort, n=7): 23.01 μU/mL
- Insulin during MTT, mean ([1]; week 12, 240 min, 4.5 mg cohort, n=5): 25.01 μU/mL
- Insulin during MTT, mean ([1]; week 12, 240 min, 6.0 mg cohort, n=8): 24.25 μU/mL
- body weight reductions from baseline to week 12 (up to) ([2]; across IBI362 cohorts): up to 5.4%
- Percent change from baseline to week 12 in body weight, single patients ([2]; 3.0 mg cohort): -0.9% and -2.2% and 0.6% and -1.0% and 0.0% and -5.1%
- Percent change from baseline to week 12 in body weight, single patients ([2]; 4.5 mg cohort): -15.9% and -3.7% and 1.3% and -1.6% and -6.0%
- Percent change from baseline in body weight, LS mean ([2]; week 4, 3.0 mg cohort): 0.1%
- Percent change from baseline in body weight, LS mean ([2]; week 4, 4.5 mg cohort): -1.1%
- Percent change from baseline in body weight, LS mean ([2]; week 4, 6.0 mg cohort): -1.7%
- Percent change from baseline in body weight, LS mean ([2]; week 8, 3.0 mg cohort): -0.2%
- Percent change from baseline in body weight, LS mean ([2]; week 8, 4.5 mg cohort): -2.1%
- Percent change from baseline in body weight, LS mean ([2]; week 8, 6.0 mg cohort): -3.3%
- Percent change from baseline in body weight, LS mean (SE) ([2]; 3.0 mg cohort): −0.9 (1.3) % and −0.9%
- Body weight (percent CFB): ETD versus placebo, LS mean (90% CI) ([2]; 3.0 mg cohort): 0.1 ( −2.6, 2.8) %
- Percent change from baseline in body weight, LS mean (SE) ([2]; 4.5 mg cohort): -5.0%
- Body weight (percent CFB): ETD versus placebo, LS mean (90% CI) ([2]; 4.5 mg cohort): −4.0 (−6.7, −1.2) % and −4.0%
- Percent change from baseline in body weight, LS mean (SE) ([2]; 6.0 mg cohort): -5.4%
- Body weight (percent CFB): ETD versus placebo, LS mean (90% CI) ([2]; 6.0 mg cohort): −4.4 (−7.0, −1.7) % and −4.4%
- Change from baseline to week 12 in waist circumference, mean ([3]; 3.0 mg cohort, n=7): -0.5 cm
- Change from baseline to week 12 in waist circumference, mean ([3]; 4.5 mg cohort, n=5): -3.0 cm
- Change from baseline to week 12 in waist circumference, individual ([3]; 3.0 mg cohort, n=7): -4.4 cm and -0.2 cm and -4.0 cm and -1.0 cm and 3.7 cm and 3.5 cm
- Change from baseline to week 12 in waist circumference, individual ([3]; 4.5 mg cohort, n=5): -4.5 cm and -1.8 cm and -2.1 cm and -2.2 cm and -4.2 cm
- Change from baseline to week 12 in waist circumference, individual ([3]; 6.0 mg cohort, n=8): -4.7 cm and -2.5 cm and -1.0 cm and -7.5 cm and -5.1 cm and -13.3 cm and -1.5 cm and -2.9 cm
- Change from baseline to week 12 in BMI ([4]; IBI362 3.0 mg): -0.38 kg/m2
- Change from baseline to week 12 in BMI ([4]; IBI362 4.5 mg): -1.25 kg/m2
- Change from baseline to week 12 in BMI ([4]; IBI362 6.0 mg): -1.36 kg/m2
- Change from baseline to week 12 in LDL cholesterol ([5]; IBI362 3.0 mg): -0.33 mmol/L
- Change from baseline to week 12 in total cholesterol ([5]; IBI362 3.0 mg): -0.71 mmol/L
- Change from baseline to week 12 in triglycerides ([5]; IBI362 3.0 mg): -0.83 mmol/L
- Change from baseline to week 12 in LDL cholesterol ([5]; IBI362 4.5 mg): -1.15 mmol/L
- Change from baseline to week 12 in total cholesterol ([5]; IBI362 4.5 mg): -1.68 mmol/L
- Change from baseline to week 12 in triglycerides ([5]; IBI362 4.5 mg): -0.23 mmol/L
- Change from baseline to week 12 in LDL cholesterol ([5]; IBI362 6.0 mg): -0.90 mmol/L
- Change from baseline to week 12 in total cholesterol ([5]; IBI362 6.0 mg): -1.17 mmol/L
- Change from baseline to week 12 in triglycerides ([5]; IBI362 6.0 mg): -0.66 mmol/L
- Change from baseline to week 12 in HOMA-IR, mean ([6]; 3.0 mg cohort, n=7): -2.1
- Change from baseline to week 12 in HOMA-IR, mean ([6]; 4.5 mg cohort, n=5): -1.5
- Change from baseline to week 12 in HOMA-IR, mean ([6]; 6.0 mg cohort, n=8): -5.4
- Change from baseline to week 12 in HOMA-IR, individual ([6]; 3.0 mg cohort, n=7): -4.8 and -1.3 and -2.3 and -1.2 and -2.4
- Change from baseline to week 12 in HOMA-IR, individual ([6]; 4.5 mg cohort, n=5): -2.8 and -5.0 and -1.9 and 2.5 and -0.5
- Change from baseline to week 12 in HOMA-IR, individual ([6]; 6.0 mg cohort, n=8): -1.9 and -5.3 and -0.4 and -4.2 and -1.1 and -1.0 and -22.2 and -7.0
